Experimental data as given in ChEMBL document CHEMBL4425144, “Discovery and Structural Optimization of N5-Substituted 6,7-Dioxo-6,7-dihydropteridines as Potent and Selective Epidermal Growth Factor Receptor (EGFR) Inhibitors against L858R/T790M Resistance Mutation” (J Med Chem, 2016).
Converted amounts (≈) assume the structure as drawn. The source made the active and inactive calls. The rule behind the calls is not given here.

Tests used:
[1] = target: T1, Epidermal growth factor receptor (Homo sapiens, UniProt P00533); assay: Inhibition of wild type EGFR kinase domain (unknown origin) expressed using baculovirus expression system incubated for 1 hr using Poly(Glu,Tyr) 4:1 by ELISA method
T1 sequence (P00533 whole entry, the tested form may be a part): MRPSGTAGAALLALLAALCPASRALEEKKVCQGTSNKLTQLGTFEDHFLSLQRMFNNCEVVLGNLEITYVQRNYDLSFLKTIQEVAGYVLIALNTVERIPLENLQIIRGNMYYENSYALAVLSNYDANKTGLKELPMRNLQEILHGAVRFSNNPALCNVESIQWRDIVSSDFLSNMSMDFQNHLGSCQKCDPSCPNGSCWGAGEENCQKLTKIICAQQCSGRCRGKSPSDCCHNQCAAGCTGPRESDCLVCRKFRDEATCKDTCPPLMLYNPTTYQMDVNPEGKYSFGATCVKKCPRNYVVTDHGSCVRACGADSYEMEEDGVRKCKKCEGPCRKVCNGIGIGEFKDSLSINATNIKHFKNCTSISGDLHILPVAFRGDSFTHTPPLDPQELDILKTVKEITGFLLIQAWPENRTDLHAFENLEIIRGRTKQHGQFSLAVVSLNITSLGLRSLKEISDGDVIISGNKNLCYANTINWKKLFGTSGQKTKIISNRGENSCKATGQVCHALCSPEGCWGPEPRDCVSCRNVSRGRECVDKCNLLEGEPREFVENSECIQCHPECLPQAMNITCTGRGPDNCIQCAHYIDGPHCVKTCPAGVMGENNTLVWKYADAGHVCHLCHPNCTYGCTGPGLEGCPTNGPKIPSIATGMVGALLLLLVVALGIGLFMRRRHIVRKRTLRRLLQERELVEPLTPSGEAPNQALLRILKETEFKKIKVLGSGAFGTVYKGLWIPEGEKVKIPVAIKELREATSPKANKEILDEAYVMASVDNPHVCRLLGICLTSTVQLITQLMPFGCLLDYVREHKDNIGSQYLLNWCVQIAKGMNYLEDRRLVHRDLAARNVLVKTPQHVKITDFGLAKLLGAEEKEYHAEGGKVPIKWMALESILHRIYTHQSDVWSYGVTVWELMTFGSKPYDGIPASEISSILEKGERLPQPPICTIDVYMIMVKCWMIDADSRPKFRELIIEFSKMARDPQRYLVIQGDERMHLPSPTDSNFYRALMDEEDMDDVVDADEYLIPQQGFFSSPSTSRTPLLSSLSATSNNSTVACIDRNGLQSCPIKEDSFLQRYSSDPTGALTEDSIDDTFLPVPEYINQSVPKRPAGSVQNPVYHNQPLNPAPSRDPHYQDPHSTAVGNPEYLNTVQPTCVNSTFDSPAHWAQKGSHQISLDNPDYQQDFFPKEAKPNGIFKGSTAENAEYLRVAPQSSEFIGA

[2] = test system: NCI-H1975; assay: Antiproliferative activity against human NCI-H1975 cells incubated for 72 hrs by SRB assay; format: functional, cell-based; conditions: NCI-H1975, 72 h
[3] = Thermodynamic solubility of the compound in 0.1M PBS buffer at pH 7.4 by UV-visible spectrophotometry; format: physicochemical; conditions: read-out: Therm_solubility
[4] = target: Receptor tyrosine-protein kinase erbB-2 (Homo sapiens) (UniProt P04626); assay: Inhibition of human ERBB2 expressed in mammalian system assessed as remaining enzyme activity at 1000 nM relative to untreated control
Chain of Receptor tyrosine-protein kinase erbB-2 (Homo sapiens) (P04626 whole entry): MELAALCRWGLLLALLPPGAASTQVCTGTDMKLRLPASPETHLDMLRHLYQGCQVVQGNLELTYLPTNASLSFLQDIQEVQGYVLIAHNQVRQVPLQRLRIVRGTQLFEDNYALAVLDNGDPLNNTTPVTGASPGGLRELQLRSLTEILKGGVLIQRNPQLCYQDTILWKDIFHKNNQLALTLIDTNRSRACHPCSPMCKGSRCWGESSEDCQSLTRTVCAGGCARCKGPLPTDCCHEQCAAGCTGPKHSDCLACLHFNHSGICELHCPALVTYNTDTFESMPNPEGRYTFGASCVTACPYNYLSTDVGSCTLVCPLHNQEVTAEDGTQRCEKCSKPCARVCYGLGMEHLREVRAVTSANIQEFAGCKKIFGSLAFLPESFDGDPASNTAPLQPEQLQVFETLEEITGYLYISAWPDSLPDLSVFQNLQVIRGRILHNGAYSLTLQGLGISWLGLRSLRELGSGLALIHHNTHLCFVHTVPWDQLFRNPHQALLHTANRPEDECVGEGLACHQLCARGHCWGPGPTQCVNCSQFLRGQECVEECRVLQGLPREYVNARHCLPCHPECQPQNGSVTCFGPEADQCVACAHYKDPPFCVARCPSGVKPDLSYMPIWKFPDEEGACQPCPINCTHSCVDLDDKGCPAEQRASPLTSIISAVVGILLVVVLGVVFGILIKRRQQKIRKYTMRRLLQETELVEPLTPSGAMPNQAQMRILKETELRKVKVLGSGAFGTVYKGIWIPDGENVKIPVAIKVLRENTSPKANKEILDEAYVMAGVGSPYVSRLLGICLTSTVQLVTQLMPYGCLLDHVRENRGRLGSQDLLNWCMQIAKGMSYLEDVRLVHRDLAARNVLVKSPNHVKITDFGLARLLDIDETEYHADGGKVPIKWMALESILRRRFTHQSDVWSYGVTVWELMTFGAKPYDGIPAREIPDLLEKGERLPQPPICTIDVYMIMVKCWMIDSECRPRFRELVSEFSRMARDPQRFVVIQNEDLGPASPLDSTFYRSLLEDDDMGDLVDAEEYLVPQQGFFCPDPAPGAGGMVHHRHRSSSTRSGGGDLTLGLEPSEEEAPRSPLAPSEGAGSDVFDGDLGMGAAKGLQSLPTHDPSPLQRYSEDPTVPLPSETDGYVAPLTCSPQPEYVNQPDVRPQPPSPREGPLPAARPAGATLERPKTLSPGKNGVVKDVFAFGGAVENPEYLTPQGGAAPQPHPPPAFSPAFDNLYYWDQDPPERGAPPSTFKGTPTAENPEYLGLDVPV

[5] = target: Receptor tyrosine-protein kinase erbB-4 (Homo sapiens) (UniProt Q15303); assay: Inhibition of human ERBB4 expressed in bacterial system assessed as remaining enzyme activity at 1000 nM relative to untreated control
Chain of Receptor tyrosine-protein kinase erbB-4 (Homo sapiens) (Q15303 whole entry): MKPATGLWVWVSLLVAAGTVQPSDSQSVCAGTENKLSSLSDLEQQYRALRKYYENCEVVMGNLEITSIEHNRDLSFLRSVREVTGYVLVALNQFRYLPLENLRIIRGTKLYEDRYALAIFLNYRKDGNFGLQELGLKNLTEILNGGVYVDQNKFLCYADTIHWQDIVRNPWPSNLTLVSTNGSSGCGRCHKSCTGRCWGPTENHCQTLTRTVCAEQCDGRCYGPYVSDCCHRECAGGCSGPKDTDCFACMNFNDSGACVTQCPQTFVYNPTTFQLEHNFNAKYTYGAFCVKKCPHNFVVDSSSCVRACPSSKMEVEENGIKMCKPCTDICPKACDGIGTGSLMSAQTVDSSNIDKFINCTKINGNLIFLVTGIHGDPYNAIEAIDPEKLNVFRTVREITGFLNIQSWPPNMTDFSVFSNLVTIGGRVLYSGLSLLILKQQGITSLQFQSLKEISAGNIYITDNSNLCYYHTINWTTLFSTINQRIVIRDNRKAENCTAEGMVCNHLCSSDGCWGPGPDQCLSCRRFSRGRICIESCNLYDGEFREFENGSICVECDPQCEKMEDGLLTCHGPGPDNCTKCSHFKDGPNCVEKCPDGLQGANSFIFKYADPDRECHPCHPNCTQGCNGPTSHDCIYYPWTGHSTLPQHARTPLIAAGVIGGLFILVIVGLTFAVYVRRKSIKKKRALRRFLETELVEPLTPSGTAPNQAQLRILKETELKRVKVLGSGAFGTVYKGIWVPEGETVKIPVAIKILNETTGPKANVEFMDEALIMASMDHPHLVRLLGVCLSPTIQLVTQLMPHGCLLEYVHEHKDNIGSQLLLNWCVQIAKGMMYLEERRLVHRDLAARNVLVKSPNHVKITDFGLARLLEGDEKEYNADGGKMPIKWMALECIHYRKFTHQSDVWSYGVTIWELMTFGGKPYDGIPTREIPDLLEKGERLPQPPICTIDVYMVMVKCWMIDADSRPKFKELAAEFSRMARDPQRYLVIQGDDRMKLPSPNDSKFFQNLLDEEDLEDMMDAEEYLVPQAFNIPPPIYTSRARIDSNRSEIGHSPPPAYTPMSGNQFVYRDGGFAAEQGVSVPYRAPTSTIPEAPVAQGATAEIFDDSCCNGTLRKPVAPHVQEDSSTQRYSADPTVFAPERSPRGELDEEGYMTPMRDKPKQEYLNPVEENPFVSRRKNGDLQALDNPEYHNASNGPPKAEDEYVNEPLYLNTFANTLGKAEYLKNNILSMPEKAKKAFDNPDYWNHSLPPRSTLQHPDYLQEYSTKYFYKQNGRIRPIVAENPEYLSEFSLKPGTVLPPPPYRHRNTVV

[6] = target: T2, Cyclin-G-associated kinase (Homo sapiens) (UniProt O14976); assay: Inhibition of human GAK expressed in bacterial system assessed as remaining enzyme activity at 1000 nM relative to untreated control
T2 sequence (whole entry): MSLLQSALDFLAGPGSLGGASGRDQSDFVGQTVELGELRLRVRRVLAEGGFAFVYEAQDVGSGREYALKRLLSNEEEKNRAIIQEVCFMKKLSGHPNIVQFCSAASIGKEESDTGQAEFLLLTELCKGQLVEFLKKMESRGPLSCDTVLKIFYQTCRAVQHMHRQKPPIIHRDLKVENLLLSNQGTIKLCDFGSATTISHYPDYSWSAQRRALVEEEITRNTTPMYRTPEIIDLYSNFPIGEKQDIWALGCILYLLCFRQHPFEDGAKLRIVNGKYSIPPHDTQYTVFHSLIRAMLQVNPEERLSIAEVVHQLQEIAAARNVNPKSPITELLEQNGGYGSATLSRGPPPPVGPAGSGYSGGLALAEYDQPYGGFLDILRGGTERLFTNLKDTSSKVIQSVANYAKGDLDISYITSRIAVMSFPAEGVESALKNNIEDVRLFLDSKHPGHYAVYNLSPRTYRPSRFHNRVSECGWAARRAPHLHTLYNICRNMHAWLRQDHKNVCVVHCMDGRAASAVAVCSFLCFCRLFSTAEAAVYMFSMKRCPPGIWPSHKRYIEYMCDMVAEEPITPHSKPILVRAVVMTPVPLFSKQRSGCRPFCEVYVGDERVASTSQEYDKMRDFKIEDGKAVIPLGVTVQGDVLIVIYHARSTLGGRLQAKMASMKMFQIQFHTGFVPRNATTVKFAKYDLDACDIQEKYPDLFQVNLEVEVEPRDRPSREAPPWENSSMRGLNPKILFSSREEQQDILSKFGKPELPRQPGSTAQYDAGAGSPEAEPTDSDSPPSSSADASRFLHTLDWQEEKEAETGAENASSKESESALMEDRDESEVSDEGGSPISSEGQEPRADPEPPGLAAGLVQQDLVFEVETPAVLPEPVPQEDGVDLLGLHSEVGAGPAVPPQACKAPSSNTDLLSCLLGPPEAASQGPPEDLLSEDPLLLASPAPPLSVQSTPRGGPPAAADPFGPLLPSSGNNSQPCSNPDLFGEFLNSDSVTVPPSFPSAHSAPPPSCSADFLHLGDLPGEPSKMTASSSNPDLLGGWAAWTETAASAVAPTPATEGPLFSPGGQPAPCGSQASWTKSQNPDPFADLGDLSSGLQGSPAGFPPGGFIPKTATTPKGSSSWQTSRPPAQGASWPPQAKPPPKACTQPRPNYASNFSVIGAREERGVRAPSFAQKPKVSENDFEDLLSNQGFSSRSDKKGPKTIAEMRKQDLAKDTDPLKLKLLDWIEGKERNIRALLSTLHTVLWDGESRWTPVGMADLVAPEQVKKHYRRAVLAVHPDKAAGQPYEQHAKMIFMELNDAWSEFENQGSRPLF

[7] = target: T1, Epidermal growth factor receptor; assay: Inhibition of EGF-induced EGFR kinase domain phosphorylation in human NCI-H1975 cells at 1000 nM pre-incubated for 2 hrs followed by stimulation with EGF for 15 mins by Western blot method; format: cell-based
[8] = Toxicity in human NCI-H1975 cells xenografted BALB/c mouse assessed as body weight loss at 50 mg/kg, po qd for 14 consecutive days; format: organism-based; conditions: in vivo
[9] = Toxicity in human NCI-H1975 cells xenografted BALB/c mouse assessed as mouse mortality at 50 mg/kg, po qd for 14 consecutive days; format: organism-based; conditions: in vivo
[10] = AUC (0 to t) in ICR mouse at 1 mg/kg, iv by LC-MS/MS method; format: ADME, organism-based; conditions: in vivo
[11] = Clearance in ICR mouse at 1 mg/kg, iv by LC-MS/MS method; format: ADME, organism-based; conditions: in vivo
[12] = Oral bioavailability in ICR mouse at 10 mg/kg by LC-MS/MS method; format: ADME, organism-based; conditions: in vivo

`C=CC(=O)Nc1cccc(-n2c(=O)c(=O)n(C(C)C)c3cnc(Nc4ccc(N5CCN(C)CC5)cc4OC)nc32)c1` showed an IC50 [1] of 2 nM, an IC50 [2] of 18 nM and a solubility thermodynamic [3] of 41 µg/mL (≈ 71.8 µM). It also gave an Activity [4] of under 1%, an Activity [5] of under 1% and an Activity [6] of under 1%. The inhibition [7] was “inactive”, the Activity [8] was “Non-Toxic” and the Activity [9] was “Non-Toxic”. For the same compound, the AUC(0-t) [10] was 140 ng·h/mL, the clearance [11] was 117 mL/min/kg and the bioavailability [12] was 48%.
